Experimental data taken from patent US7514469B2, “Formulation of a mixture of Free-B-ring flavonoids and flavans as a therapeutic agent” (Unigen Pharmaceuticals, Inc., priority 2002, dated 2009).
Where two headings read alike, the source gives them in different places.

Assays:
[1] = target: T1, recombinant ovine COX-2 (Ovis aries, UniProt P79208); assay: COX-2 peroxidase assay, high throughput (Example 2); format: biochemical; settings: 20 μg/mL
T1 construct: purchased Cayman
T1 sequence (P79208 17-603): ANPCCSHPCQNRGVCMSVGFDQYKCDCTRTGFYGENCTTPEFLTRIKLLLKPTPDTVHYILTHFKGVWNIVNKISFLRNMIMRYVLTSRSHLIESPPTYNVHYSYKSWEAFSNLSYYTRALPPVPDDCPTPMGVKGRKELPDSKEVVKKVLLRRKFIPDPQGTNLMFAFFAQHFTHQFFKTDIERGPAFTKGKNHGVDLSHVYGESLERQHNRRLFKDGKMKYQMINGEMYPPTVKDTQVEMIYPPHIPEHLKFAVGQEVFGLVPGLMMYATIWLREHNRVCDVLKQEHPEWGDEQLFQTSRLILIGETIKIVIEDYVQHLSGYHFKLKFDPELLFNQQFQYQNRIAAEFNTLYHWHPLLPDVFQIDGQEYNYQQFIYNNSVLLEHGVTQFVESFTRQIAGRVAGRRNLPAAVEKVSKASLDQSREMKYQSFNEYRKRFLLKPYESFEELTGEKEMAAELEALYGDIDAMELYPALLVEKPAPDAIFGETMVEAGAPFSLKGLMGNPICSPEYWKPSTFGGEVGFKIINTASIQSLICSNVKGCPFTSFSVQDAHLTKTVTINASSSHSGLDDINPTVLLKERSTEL
Description: Peroxidase Assay. The assay to detect inhibitors of COX-2 was modified for a high throughput platform (Raz). […] Luminescence was then read using a Wallac Victor 2 plate reader. […] Data is presented as the percent of peroxidase activity relative to the recombinant ovine COX-2 enzyme and substrate alone.

[2] = target: T2, Ovine COX-1 (Ovis aries, UniProt P05979); assay: COX-1 peroxidase assay (Example 2 method); format: biochemical; settings: read-out: Inhibition of COX-1
T2 sequence (P05979 25-600): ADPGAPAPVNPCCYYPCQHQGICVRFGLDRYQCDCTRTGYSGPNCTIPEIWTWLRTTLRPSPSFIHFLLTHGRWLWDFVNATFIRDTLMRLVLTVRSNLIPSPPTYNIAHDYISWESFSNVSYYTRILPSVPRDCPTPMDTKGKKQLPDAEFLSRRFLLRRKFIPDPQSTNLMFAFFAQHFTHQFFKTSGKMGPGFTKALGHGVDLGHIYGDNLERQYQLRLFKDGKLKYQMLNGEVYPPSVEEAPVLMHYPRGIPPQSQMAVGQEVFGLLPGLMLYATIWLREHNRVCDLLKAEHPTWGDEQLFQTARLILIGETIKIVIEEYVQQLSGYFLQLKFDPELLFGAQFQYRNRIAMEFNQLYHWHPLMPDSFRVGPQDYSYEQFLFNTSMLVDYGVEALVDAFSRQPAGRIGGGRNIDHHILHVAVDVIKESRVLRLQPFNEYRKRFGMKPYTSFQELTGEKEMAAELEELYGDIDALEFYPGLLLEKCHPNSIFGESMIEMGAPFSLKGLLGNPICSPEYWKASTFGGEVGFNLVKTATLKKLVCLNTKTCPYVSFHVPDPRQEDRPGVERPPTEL
Description: Peroxidase Assay. The assay to detect inhibitors of COX-2 was modified for a high throughput platform (Raz). […] Luminescence was then read using a Wallac Victor 2 plate reader.
Comparison of the relative inhibition of the COX-1 and COX-2 isoforms requires the generation of IC50 values for each of these enzymes. […] Examination of the HTP fractions and purified compounds from these fractions is necessary to determine the true specificity of inhibition for these extracts and compounds.

[3] = test system: COX-1; settings: cited from earlier work
[4] = test system: mouse; settings: oral, 100 mg/kg; cited from earlier work
[5] = test system: colorectal cancer; settings: in vivo; cited from earlier work
[6] = target: T2, Ovine COX-1; assay: COX-1 peroxidase activity IC50 assay with TMPD (Example 6); format: biochemical
Procedure: (§1) A cleavable, peroxide chromophore was included in the assay to visualize the peroxidase activity of each enzyme in the presence of arachidonic acid as a cofactor. Typically, the assays were performed in a 96-well format. Each inhibitor, taken from a 10 mg/mL stock in 100% DMSO, was tested in triplicate at room temperature using the following range of concentrations: 0, 0.1, 1, 5, 10, 20, 50, 100, and 500 μg/mL. […] The components were mixed for 10 seconds on a rotating platform, after which 20 μL of 2 mM N,N,N′N′-Tetramethyl-p-phenylenediamine dihydrochloride (TMPD) and 20 μL of 1.1 mM AA was added to initiate the reaction. The plate was shaken for 10 seconds and then incubated for 5 minutes before reading the absorbance at 570 nm. The inhibitor concentration vs. percentage inhibition was plotted and the IC50 determined by taking the half-maximal point along the isotherm and intersecting the concentration on the x-axis. The IC50 was then normalized to the number of enzyme units in the assay.

[7] = target: T1, recombinant ovine COX-2; assay: COX-2 peroxidase activity IC50 assay with TMPD (Example 6); format: biochemical
Procedure: as §1

[8] = target: potato 5-lipoxygenase; assay: Lipoxygenase Inhibitor Screening Assay with potato 5-LO; format: biochemical
Description: As noted above, one of the most important pathways involved in the inflammatory response is produced by non-heme, iron-containing lipoxygenases (5-LO, 12-LO, and 15-LO), which catalyze the addition of molecular oxygen onto fatty acids such as AA (AA) to produce the hydroperoxides 5-, 12- and 15-HPETE, which are then converted to leukotrienes. There were early indications that the flavan extract from A. catechu may provide some degree of 5-LO inhibition, thereby preventing the formation of 5-HPETE. […] The 15-LO from soybeans normally used in the kit was replaced with potato 5-LO, after a buffer change from phosphate to a tris-based buffer using microfiltration was performed. This assay detects the formation of hydroperoxides through an oxygen sensing chromagen.

[9] = test system: LTB4 synthesis (5-LO pathway) in HT-29 cells; assay: LTB4 ELISA in HT-29 cells; format: cell-based; settings: 3 μg/mL, 48 hrs; Univestin ratio 80:20
Procedure: A competitive ELISA for LTB4 (LTB4; Neogen, Inc., Cat #4061 10) was used to assess the effect of Univestin™ on newly synthesized levels of LTB4 present in each cell line as a measure of Univestin™'s inhibitory effect on the 5-LO pathway. The assay was performed in duplicate by adding 160,000 to 180,000 cells per well in 6-well plates. […] Each treated cell line was then harvested by centrifugation and disrupted by gentle dounce homogenization lysis in physiological buffers.

[10] = test system: subjects with rheumatoid arthritis or osteoarthritis of the knee and/or hip; assay: Clinical study, WOMAC Osteo-Arthritis Index; format: in vivo, human; settings: 200 mg/day; vs baseline; completers only
Description: This clinical study was a single-center, randomized, double-blind, placebo-controlled study. Sixty subjects (n=60) with rheumatoid arthritis or osteoarthritis of the knee and/or hip were randomly placed into one of the following four groups:
Subjects were sex-matched and recruited from ages 40 to 75. […] Subjects taking NSAIDs engaged in a two-week washout period before beginning the study. Physical activity was not restricted, nor were the subjects given any advice as to diet. Subjects were free to withdraw from the trial at any time for any reason. The efficacy of the treatments was evaluated at 30, 60 and 90 days of oral administration by physicians, using the Western Ontario and McMaster Universities (WOMAC) Osteo-Arthritis Index (See Lingard et al. (2001) J. Bone & Joint Surg. 83:1856-1864; Soderman and Malchau (2000) Acta Orthop. Scand. 71(1):39-46). This protocol was reviewed and approved by an IRB board from University of Montreal.
The WOMAC was administered to subjects preferably in the doctor's office. They were asked to read and respond to a questionnaire on their own or via proxy in the waiting room of the doctor's office or were interviewed by project personnel over the telephone and the data were transcribed in the computer database. This offered a stable environment among patients and reduced the possibility of bias due to different home environments among patients. Between groups differences for all measurements were evaluated with One-Way Analysis of Variance and Tukey's Least Significant Difference for multiple comparisons. All questions were assigned a weight from 0 to 4 depending on the severity of pain, stiffness or impaired function. These values were then converted to percentages normalized to 100 and reported as WOMAC scores. Higher values are indicative of greater impairment. […] The lower the score, the less pain and stiffness and better function a patient has.

[11] = Clinical study, weight and BMI; format: in vivo, human; settings: 200 mg/day
Procedure: Additional measurements taken during the clinical trial were height and weight. All subjects in all groups (see Example 20) were measured for height and weight at 30 and 90 days of treatment. The subjects were given no recommendations on diet or exercise in order not to bias the results toward reduction of BMI and weight loss. Table 14 illustrates the changes in weight and BMI that occurred after treatment for 30 and 90 days.

O=c1cc(-c2ccccc2)oc2c(O)c(O)ccc12 [7,8-Dihydroxyflavone]
inhibition at 20 µg/mL [1]: 63% | inhibition at 20 µg/mL ([2]; 20 μg/mL): 74%

Oc1ccc([C@H]2Oc3cc(O)cc(O)c3C[C@H]2O)cc1 [Epiafzelechin]
IC50 ([3]; isolated from Celastrus orbiculatus): 15 µM | Anti-inflammatory activity, carrageenin-induced mouse paw edema [4]: demonstrated anti-inflammatory activity

CC(=O)Oc1ccccc1C(=O)O [Aspirin]
Reduction of colorectal cancer mortality [5]: 50% | Reduction of incidence of colorectal cancer [5]: 40-50%

O=c1cc(-c2ccccc2)oc2cc(O)c(O)c(O)c12 [baicalein]
inhibition at 20 µg/mL ([2]; 20 μg/mL): 107%

Oc1cc(O)c2c(c1)O[C@H](c1ccc(O)c(O)c1)[C@H](O)C2 [epicatechin]
IC50 [6]: 24.1 µM | IC50 [7]: 68.9 µM

Oc1cc(O)c2c(c1)OC(c1ccc(O)c(O)c1)C(O)C2 (centres unmarked) [catechin]
IC50 for COX-1 ([6]; normalized to enzyme units): 0.11 μg/mL/unit of enzyme | IC50 for COX-2 ([7]; normalized to enzyme units): 0.42 μg/mL/unit | IC50 for 5-LO [8]: 1.38 μg/mL/unit of enzyme

COc1c(O)cc(O)c2c(=O)cc(-c3ccccc3)oc12 [Wogonin]
inhibition at 20 µg/mL [2]: 16%

COc1cc2oc(-c3ccccc3)cc(=O)c2c(O)c1O [5,6-Dihydroxy-7-methoxyflavone]
inhibition at 20 µg/mL [1]: 59% | inhibition at 20 µg/mL ([2]; 20 μg/mL): 75%

CC(C)Cc1ccc(C(C)C(=O)O)cc1 (centres unmarked) [Ibuprofen]
Reduction of newly synthesized LTB4 [9]: 20%

O=C(O)[C@H]1O[C@@H](Oc2cc3oc(-c4ccccc4)cc(=O)c3c(O)c2O)[C@H](O)[C@@H](O)[C@@H]1O [baicalin]
inhibition at 20 µg/mL [1]: 97% | inhibition at 20 µg/mL ([2]; 20 μg/mL): 95%

Cc1ccc(-c2cc(C(F)(F)F)nn2-c2ccc(S(N)(=O)=O)cc2)cc1 [Celecoxib]
Mean absolute change in WOMAC score Function-30 days [10]: −0.37 | Mean absolute change in WOMAC score Function-60 days [10]: −6.97 | Mean absolute change in WOMAC score Function-90 days [10]: −2.78 | Mean absolute change in WOMAC score Pain-30 days [10]: −4.23 | Mean absolute change in WOMAC score Pain-60 days [10]: −22.31 | Mean absolute change in WOMAC score Pain-90 days [10]: −16.67 | Mean absolute change in WOMAC score Stiffness-30 days [10]: −8.65 | Mean absolute change in WOMAC score Stiffness-60 days [10]: −9.62 | Mean absolute change in WOMAC score Stiffness-90 days [10]: −13.54 | Change in mean BMI, 30 days [11]: −.68 kg/m^2 | Change in mean BMI, 90 days [11]: −1.07 kg/m^2 | Change in mean weight, 30 days [11]: -2.00 kg | Change in mean weight, 90 days [11]: -3.17 kg

Oc1cc(O)c2c(c1)O[C@H](c1ccc(O)c(O)c1)[C@@H](O)C2 [(+)-Catechin]
IC50 ([3]; isolated from natural source): 80 µM
